Laboratory results as given in ChEMBL document CHEMBL3102791, “Synthesis and biological evaluation of 2-aminothiazole derivatives as antimycobacterial and antiplasmodial agents” (Bioorg Med Chem Lett, 2014).

What was measured:
Details in all cases: read-out: Stability
[1] = Metabolic stability in BALB/c mouse liver microsomes assessed as compound remaining at 1 uM after 30 mins by HPLC-MS/MS analysis; format: ADME, Microsome
[2] = Metabolic stability in rat liver microsomes assessed as compound remaining at 1 uM after 30 mins by HPLC-MS/MS analysis; format: ADME
[3] = Metabolic stability in human liver microsomes assessed as compound remaining at 1 uM after 30 mins by HPLC-MS/MS analysis; format: ADME

| Compound | remaining at 0.5 h, 1 µM [1] [%] | remaining at 0.5 h, 1 µM [2] [%] | remaining at 0.5 h, 1 µM [3] [%] |
| --- | --- | --- | --- |
| O=C(Nc1nc(-c2ccccn2)cs1)c1ccccc1 | 7.6 | 54.5 | 27.5 |
| O=C(Nc1nc(-c2ccccn2)cs1)c1cccc(Br)c1 | 82.4 | > 99 | > 99 |
| O=C(Nc1nc(-c2ccccn2)cs1)c1ccncc1 | 3.71 | 47.8 | 53.8 |
| N#Cc1ccc(C(=O)Nc2nc(-c3ccccn3)cs2)cc1 | 1.61 | 64.6 | 24.1 |
| O=C(Nc1nc(-c2ccccn2)cs1)c1ccc(Cl)cc1 | 1.33 | 42.1 | 8.4 |
| O=C(Nc1nc(-c2ccccn2)cs1)c1ccc(F)cc1 | 3.61 | 72.1 | 14.2 |
